Measurements: ChEMBL document CHEMBL5321239, “Exploration of imatinib and nilotinib-derived templates as the P2-Ligand for HIV-1 protease inhibitors: Design, synthesis, protein X-ray structural studies, and biological evaluation” (Eur J Med Chem, 2023)

Key:
[1] = system: Human immunodeficiency virus; assay: Antiviral activity against HIV LAI infected in human MT2 cells assessed as inhibition of viral growth; type: functional, organism-based; conditions: Human immunodeficiency virus 1, LAI
[2] = target: Human immunodeficiency virus type 1 protease (Human immunodeficiency virus 1, UniProt Q72874); assay: Inhibition of HIV-1 protease expressed in Escherichia coli assessed as inhibition constant using Ac-Thr-Ile-Met-Met-Gln-Arg as substrate preincubated for 10 mins followed by substrate addition by HPLC analysis

| Compound | IC50 [1] | Ki [2] |
| --- | --- | --- |
| CC(C)CN(C[C@@H](O)[C@H](Cc1ccccc1)NC(=O)O[C@H]1CO[C@H]2OCC[C@H]21)S(=O)(=O)c1ccc(N)cc1 | 2.1 nM | – |
| COCc1csc(Nc2ccc(C)c(C(=O)N[C@@H](Cc3ccccc3)[C@H](O)CN(CC(C)C)S(=O)(=O)c3ccc(OC)cc3)c2)n1 | 630 nM | – |
| COc1ccc(S(=O)(=O)N(CC(C)C)C[C@@H](O)[C@H](Cc2ccccc2)NC(=O)c2ccc(C)c(Nc3nc(-c4cccnc4)cs3)c2)cc1 | 390 nM | – |
| COc1ccc(S(=O)(=O)N(CC(C)C)C[C@@H](O)[C@H](Cc2ccccc2)NC(=O)c2ccc(C)c(Nc3nc(-c4cccnc4)cs3)c2C)cc1 | 510 nM | – |
| COc1ccc(S(=O)(=O)N(CC(C)C)C[C@@H](O)[C@H](Cc2ccccc2)NC(=O)c2ccc(C)c(Nc3nccc(-c4cccnc4)n3)c2)cc1 | 154 nM | 0.028 nM |
| COc1ccc(S(=O)(=O)N(CC(C)C)C[C@@H](O)[C@H](Cc2ccccc2)NC(=O)c2cc(Nc3nc(C)cs3)ccc2C)cc1 | > 1000 nM | – |
| Cc1ccc(C(=O)N[C@@H](Cc2ccccc2)[C@H](O)CN(CC(C)C)S(=O)(=O)c2ccc(N)cc2)cc1Nc1nccc(-c2cccnc2)n1 | 66.8 nM | – |
| COc1ccc(S(=O)(=O)N(CC(C)C)C[C@@H](O)[C@H](Cc2ccccc2)NC(=O)c2cccc(Nc3nc(C(F)(F)F)cs3)c2C)cc1 | > 1000 nM | – |
| COc1ccc(S(=O)(=O)N(CC(C)C)C[C@@H](O)[C@H](Cc2ccccc2)NC(=O)c2ccc(C)c(Nc3nc(C(F)(F)F)cs3)c2)cc1 | > 1000 nM | – |
| Cc1ccc(C(=O)N[C@@H](Cc2cc(F)cc(F)c2)[C@H](O)CN(CC(C)C)S(=O)(=O)c2ccc(N)cc2)cc1Nc1nccc(-c2cccnc2)n1 | 212 nM | – |
| COc1ccc(S(=O)(=O)N(CC(C)C)C[C@@H](O)[C@H](Cc2ccccc2)NC(=O)c2cccc(Nc3nc(C)cs3)c2C)cc1 | > 1000 nM | – |
| COc1ccc(S(=O)(=O)N(CC(C)C)C[C@@H](O)[C@H](Cc2cc(F)cc(F)c2)NC(=O)c2ccc(C)c(Nc3nccc(-c4cccnc4)n3)c2)cc1 | 124 nM | – |
| COc1ccc(S(=O)(=O)N(CC(C)C)C[C@@H](O)[C@H](Cc2ccccc2)NC(=O)c2cc(C)cc(Nc3nc(C)cs3)c2)cc1 | > 1000 nM | – |
| COc1ccc(S(=O)(=O)N(CC(C)C)C[C@@H](O)[C@H](Cc2ccccc2)NC(=O)c2ccc(C)c(Nc3nc(C)cs3)c2)cc1 | > 1000 nM | 26.5 nM |
| COc1ccc(S(=O)(=O)N(CC(C)C)C[C@@H](O)[C@H](Cc2ccccc2)NC(=O)c2cc(C)cc(Nc3nc(-c4cccnc4)cs3)c2)cc1 | > 1000 nM | – |
| COc1ccc(S(=O)(=O)N(CC(C)C)C[C@@H](O)[C@H](Cc2ccccc2)NC(=O)c2cccc(Nc3nc(-c4cccnc4)cs3)c2C)cc1 | > 1000 nM | 19.3 nM |
| COc1ccc(S(=O)(=O)N(CC(C)C)C[C@@H](O)[C@H](Cc2ccccc2)NC(=O)c2cc(Nc3nc(-c4cccnc4)cs3)ccc2C)cc1 | 580 nM | 8.7 nM |
